Data on 21 molecules can be found in patent US6110962A, “11-aryl-benzo[B]naphtho[2,3-D]furans and 11-aryl-benzo[B]naphtho[2,3-D]thiophenes useful in the treatment of insulin resistance and hyperglycemia” (American Home Products Corporation, priority 1999, dated 2000).

The subject of assay [1] is diabetic (ob/ob) mice. As to the kind of experiment: Blood glucose lowering activity in diabetic (ob/ob) mice. Format: in vivo, mouse. As to the method:
The blood glucose lowering activity of representative compounds of this invention were determined in an in vivo standard procedure using diabetic (ob/ob) mice. The procedures used and results obtained are briefly described below. The non-insulin dependent diabetic (NIDDM) syndrome can be typically characterizes by obesity, hyperglycemia, abnormal insulin secretion, hyperinsulinemia and insulin resistance. […] In each test procedure, mice [Male or female ob/ob (C57 B1/6J) and their lean litermates (ob+ or +/+, Jackson Laboratories) ages 2 to 5 months (10 to 65 g)] of a similar age were randomized according to body weight into 4 groups of 10 mice. The mice were housed 5 per cage and are maintained on normal rodent chow with water ad libitum. Mice received test compound daily by gavage (suspended in 0.5 ml of 0.5% methyl cellulose); dissolved in the drinking water; or admixed in the diet. […] The dose is calculated based on the fed weekly body weight and is expressed as active moiety. […] Control mice received vehicle only. On the morning of Day 4, 7 or 14 two drops of blood (approximetly 50 ul) were collected into sodium fluoride containing tubes either from the tail vein or after decapitation. For those studies in which the compound was administered daily by gavage the blood samples were collected two hours after compound administration. The plasma was isolated by centrifugation and the concentration of glucose is measured enzymatically on an Abbott V. P. Analyzer. […] Analysis of variance followed by Dunett's Comparison Test (one-tailed) are used to estimate the significant difference between the plasma glucose values from the control group and the individual compound treated groups (CMS SAS Release 5.18).

Assay [2] deals with T1, Human recombinant PTP1B (Homo sapiens, UniProt P18031).
T1 construct: made in house
T1 sequence (P18031 1-435): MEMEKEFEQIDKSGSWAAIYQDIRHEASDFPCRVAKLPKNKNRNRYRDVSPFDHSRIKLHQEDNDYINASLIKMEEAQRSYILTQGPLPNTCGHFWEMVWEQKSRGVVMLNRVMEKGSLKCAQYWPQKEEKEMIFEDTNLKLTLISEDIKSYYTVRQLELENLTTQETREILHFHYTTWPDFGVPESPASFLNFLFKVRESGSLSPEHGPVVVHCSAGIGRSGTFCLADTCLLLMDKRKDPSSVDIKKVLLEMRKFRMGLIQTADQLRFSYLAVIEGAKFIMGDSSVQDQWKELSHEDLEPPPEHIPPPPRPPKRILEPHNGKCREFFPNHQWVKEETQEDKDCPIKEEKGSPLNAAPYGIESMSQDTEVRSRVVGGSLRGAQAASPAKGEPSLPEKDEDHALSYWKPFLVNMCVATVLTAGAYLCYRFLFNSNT
It is filed as biochemical. To be noted: read-out: IC50.

Assay [3] deals with rat hepatic microsomal PTPases. To be noted: PTPase activity, compound at 50 μM.
Where [4] appears, read: Mus musculus, po, 96 h, ob/ob mice, plasma glucose Day 4, 7 or 14, read-out: % Change Glucose from Vehicle.
Where [5] appears, read: Mus musculus, po, ob/ob mice, read-out: % Change Insulin from Vehicle.
[6] abbreviates: Mus musculus, po, 96 h, ob/ob mice, dose 100 mg/Kg, plasma glucose Day 4, 7 or 14, read-out: % Change Glucose from Vehicle.

Molecules are shown by their SMILES. Read-outs that look alike come from different tables or passages of the source.

By IC50 is commonly meant the concentration at which inhibition is half-maximal. Turning to `O=C(O)C(Cc1ccc(F)cc1)Oc1c(Br)cc(-c2c3ccccc3c(Br)c3sc4ccccc4c23)cc1Br` (centres unmarked) [Example 155, 2-[2,6-Dibromo-4-(6-bromo-benzo[b]naphtho[2,3-d]thiophen-11-yl)-phenoxy]-3-(4-fluoro-phenyl)-propionic acid], the change in vivo at 25 mg/kg is -28.9% in assay [1] (setting [4]) and -63.2% in assay [1] (setting [5]). For the same molecule, the IC50 in assay [2] was 56 nM. In addition, the “% Change from Control” value in assay [3] is -82.25%.
In the same order, the values of `O=C(O)[C@@H](Cc1ccccc1)Oc1c(Br)cc(-c2c3ccccc3c(Cl)c3sc4ccccc4c23)cc1Br` [Example 127, (R)-2-{2,6-Dibromo-4-(6-chloro-benzo[b]naphtho[2,3-d]thiophen-11-yl)-phenoxy}-3-phenyl-propionic acid] are -18.8%, -76.5%, 64 nM and -37.08%.
Taken in the same sequence, the figures for `C[C@@H](Oc1c(Br)cc(-c2c3ccccc3c(Sc3ccccc3)c3sc4ccccc4c23)cc1Br)C(=O)O` [Example 129, (R)-2-[2,6-Dibromo-4-(6-phenylsulfanyl-benzo[b]naphthor[2,3-d]thiophen-11-yl)-phenoxy]-propionic acid] were -14.9%, -54.6%, 46 nM and -59.03%.
In the case of `O=C(O)COc1c(Br)cc(-c2c3ccccc3c(Br)c3sc4ccccc4c23)cc1Br` [Example 79, [2,6-Dibromo-4-(6-bromo-benzo[b]naphtho[2,3-d]thiophen-11-yl)-phenoxy]-acetic acid], in assay [1] (setting [6]), the change in vivo at 100 mg/kg is -22.6%. The “% Change Glucose from Vehicle” value in assay [1] (ob/ob mice, dose 100 mg/Kg, plasma glucose Day 4, 7 or 14, 100 mg/kg) is given as -22.60%. Moreover, in assay [2], the IC50 is 386 nM. Moreover, the “% Change from Control” value in assay [3] was -82.58%.
For the molecule `CCCCC(Oc1c(Br)cc(-c2c3ccccc3c(Br)c3sc4ccccc4c23)cc1Br)C(=O)O` (centres unmarked) [Example 123, 2-[2,6-Dibromo-4-(6-bromo-benzo[b]naphtho[2,3-d]thiophen-11-yl)-phenoxy]-hexanoic acid], the change in vivo at 75 mg/kg in assay [1] (setting [4]) was -24%; in assay [1] (setting [5]), -40.9%. Besides, the IC50 in assay [2] was 82 nM. Further, the “% Change from Control” value in assay [3] is recorded as -87.44%.
As to `O=C(O)COc1c(-c2ccccc2)cc(-c2c3ccccc3cc3sc4ccccc4c23)cc1-c1ccccc1` [Example 191], the change in vivo at 10 mg/kg in assay [1] (Mus musculus, po, 96 h, ob/ob mice, dose 10 mg/Kg, plasma glucose Day 4, 7 or 14, read-out: % Change Glucose from Vehicle) was -22.8%. Further, the change in vivo at 25 mg/kg in assay [1] (setting [4]) is -36.5%; in assay [1] (setting [5]), -64.3%.
Consider `CC1(COc2ccc(CC3SC(=O)NC3=O)cc2)CCCCC1` (centres unmarked) [Ciglitazone, 5-(4-(1-methylcyclohexylmethoxy)benzyl)-2,4-dione, reference compound], for which the change in vivo at 100 mg/kg in assay [1] (setting [6]) is -43%; in assay [1] (Mus musculus, po, ob/ob mice, dose 100 mg/Kg, read-out: % Change Insulin from Vehicle), -39%. The “lowering in plasma glucose (in words)” value in assay [1] (positive control, 100 mg/kg/day) is given as “significant lowering in plasma glucose”.
On to `COC(=O)[C@H](Cc1ccccc1)Oc1c(Br)cc(-c2c3ccccc3c(Br)c3sc4ccccc4c23)cc1Br` [Example 110, (S)-2-[2,6-Dibromo-4-(6-bromo-benzo[b]naphtho[2,3-d]thiophen-11-yl)-phenoxy]-3-phenyl-propionic acid, methyl ester], for which the IC50 in assay [2] worked out at 1520 nM. Further, the “% Change from Control” value in assay [3] is reported as -12.78%.
In the same order, the values of `O=C(O)[C@H](Oc1c(Br)cc(-c2c3ccccc3c(Br)c3sc4ccccc4c23)cc1Br)c1ccccc1` [Example 142, (R)-[2,6-Dibromo-4-(6-bromo-benzo[b]naphtho[2,3-d]thiophen-11-yl)-phenoxy]-phenyl-acetic acid] are 103 nM and -104.68%.
In the same order, the values of `N#CCOc1c(Br)cc(-c2c3ccccc3c(Br)c3sc4ccccc4c23)cc1Br` [Example 169, [2,6-Dibromo-4-(6-bromo-benzo[b]naphtho[2.3-d]thiophen-11-yl)-phenoxy]-acetonitrile] are 1220 nM and -9.30%.
Taken in the same sequence, the figures for `Oc1cc(-c2c3ccccc3c(Br)c3sc4ccccc4c23)ccc1Br` [Example 68, 2-Bromo-5-(6-bromo-benzo[b]naphtho[2,3-d]thiophen-11-yl)-phenol] were 1020 nM and -26.32%.
For the molecule `Oc1c(Br)cc(-c2c3ccccc3c(Br)c3oc4ccccc4c23)cc1Br` [Example 210, 2,6-Dibromo-4-(6-bromo-benzo[b]naphtho[2,3-d]furan-11ly)-phenol], in assay [2], the IC50 stood at 1060 nM. Moreover, the “% Change from Control” value in assay [3] is reported as -51.55%.
In the same order, the values of `O=C(O)[C@@H](CCN1C(=O)c2ccccc2C1=O)Oc1ccc(-c2c3ccccc3c(Br)c3sc4ccccc4c23)cc1` [Example 150] are 207 nM and -92.46%.
For `CC(C)c1cc(-c2c3ccccc3c(Br)c3sc4ccccc4c23)cc(C(C)C)c1O[C@H](C)C(=O)O` [Example 140, (R)-2-[4-(6-Bromo-benzo[b]naphtho[2,3-d]thiophen-11-yl)-2,6-diisopropyl-phenoxy)-propionic acid], the IC50 in assay [2] came to 204 nM. Besides, the “% Change from Control” value in assay [3] is listed as -71.19%.
In the same order, the values of `O=C(O)C(Cc1cccnc1)Oc1c(Br)cc(-c2c3ccccc3c(Br)c3sc4ccccc4c23)cc1Br` (centres unmarked) [Example 137, 2-[2,6-Dibromo-4-(6-bromo-benzo[b]naphtho[2,3-d]thiophen-11-yl)-phenoxy]-3-pyridin-3-yl-propionic acid] are 341 nM and -64.92%.
As for `O=C(O)[C@@H](Cc1ccccc1)Oc1c(Br)cc(-c2c3ccccc3c(C(F)(F)F)c3sc4ccccc4c23)cc1Br` [Example 125, (R)-2-[2,6-Dibromo-4-(6-trifluoromethyl-benzo[b]naphtho[2,3-d]thiophen-11-yl)-phenoxy]-3-phenyl-propionic acid], the change in vivo at 95 mg/kg in assay [1] (setting [4]) was -27.6%; in assay [1] (setting [5]) it was -89.7%. In addition, in assay [3], the “% Change from Control” value is recorded as -73.96%.
Take `CC(=O)Oc1ccc(-c2c3ccccc3c(Br)c3sc4ccccc4c23)cc1` [Example 37, 4-(6-Bromo-benzo[b]naphtho[2,3-d]thiophen-11-yl-phenol)acetate(ester)]: the IC50 in assay [2] amounted to 1180 nM. In addition, in assay [3], the “% Change from Control” value was -3.02%.
Taken in the same sequence, the figures for `C[C@@H](Oc1c(I)cc(-c2c3ccccc3cc3sc4ccccc4c23)cc1I)C(=O)O` [Example 132, (R)-2-(4-Benzo[b]naphtho[2,3-d]thiophen-11-yl-2,6-diiodo-phenoxy)-propionicacid] were 311 nM and -49.27%.
On to `O=C(O)[C@@H](Cc1ccccc1)Oc1c(Cl)cc(-c2c3ccccc3c(Br)c3sc4ccccc4c23)cc1Cl` [Example 130, (R)-2-[2,6-Dichloro-4-(6-bromo-benzo[b]naphtho[2,3-d]thiophen-11-yl)-phenoxy]l-3-phenyl-propionic acid], for which, in assay [2], the IC50 stood at 800 nM. For the same molecule, the “% Change from Control” value in assay [3] is -72.14%.
As for `N#CCCNC(=O)[C@@H](Cc1ccccc1)Oc1c(Br)cc(-c2c3ccccc3c(Br)c3sc4ccccc4c23)cc1Br` [Example 168], the IC50 in assay [2] was 994 nM. The “% Change from Control” value in assay [3] is listed as -17.85%.
In the case of `O=C(O)[C@@H](Cc1ccccc1)Oc1c(I)cc(-c2c3ccccc3cc3sc4ccccc4c23)cc1I` [Example 131], the change in vivo at 25 mg/kg was -3.63% in assay [1] (setting [4]) and -67.5% in assay [1] (setting [5]). The “% Change from Control” value in assay [3] is recorded as -66.21%.
